From ChEMBL document CHEMBL1681699 (Bioorg Med Chem, 2011)

Experiments:
[1] = Metabolic stability in Sprague-Dawley rat plasma assessed as radioactive compound remaining after 40 mins; format: ADME, cell-free; details: read-out: Stability
[2] = Biodistribution in Sprague-Dawley rat fat at 3.7 x 10^3 to 5.55 x 10'3 GBq, iv after 30 mins; format: ADME, organism-based, Adipose tissue; details: in vivo, 0.5 h
Brain [3] = assay: Metabolic stability in Sprague-Dawley rat brain assessed as 4-(1-Methyl-4-pyridin-4-yl-1H-pyrazol-3-yl)-phenol remaining after 20 mins; format: ADME, tissue-based
[4] = Metabolic stability in Sprague-Dawley rat brain assessed as radioactive compound remaining after 60 mins; format: ADME, tissue-based; details: read-out: Stability
Striatum [5] = assay: Biodistribution in Sprague-Dawley rat striatum at 3.7 x 10^3 to 5.55 x 10^3 GBq, iv after 5 mins; format: ADME, organism-based; details: in vivo
Brain [6] = assay: Metabolic stability in Sprague-Dawley rat brain assessed as 4-(1-Methyl-4-pyridin-4-yl-1H-pyrazol-3-yl)-phenol remaining after 2 mins; format: ADME, tissue-based
[7] = Biodistribution in Sprague-Dawley rat fat at 3.7 x 10^3 to 5.55 x 10^3 GBq, iv after 60 mins; format: ADME, organism-based, Adipose tissue; details: in vivo, 1 h
Cerebellum [8] = assay: Biodistribution in Sprague-Dawley rat cerebellum at 3.7 x 10'3 to 5.55 x 10^3 GBq, iv after 60 mins; format: ADME, organism-based; details: in vivo, 1 h
Cerebellum [9] = assay: Biodistribution in Sprague-Dawley rat cerebellum at 3.7 x 10'3 to 5.55 x 10'3 GBq, iv after 30 mins; format: ADME, organism-based; details: in vivo, 0.5 h
[10] = Metabolic stability in Sprague-Dawley rat plasma assessed as radioactive compound remaining after 20 mins; format: ADME, cell-free; details: read-out: Stability
[11] = Biodistribution in Sprague-Dawley rat hippocampus at 3.7 x 10^3 to 5.55 x 10^3 GBq, iv after 5 mins; format: ADME, organism-based; details: in vivo
Kidney [12] = assay: Biodistribution in Sprague-Dawley rat kidney at 3.7 x 10^3 to 5.55 x 10^3 GBq, iv after 5 mins; format: ADME, organism-based; details: in vivo
Brain [13] = assay: Biodistribution in Sprague-Dawley rat brain at 3.7 x 10^3 to 5.55 x 10^3 GBq, iv after 5 mins; format: ADME, organism-based; details: in vivo
Heart [14] = assay: Biodistribution in Sprague-Dawley rat heart at 3.7 x 10^3 to 5.55 x 10^3 GBq, iv after 60 mins; format: ADME, organism-based; details: in vivo, 1 h
[15] = Biodistribution in Sprague-Dawley rat fat at 3.7 x 10^3 to 5.55 x 10^3 GBq, iv after 5 mins; format: ADME, organism-based, Adipose tissue; details: in vivo
Plasma [16] = assay: Metabolic stability in Sprague-Dawley rat plasma assessed as 4-(1-Methyl-4-pyridin-4-yl-1H-pyrazol-3-yl)-phenol remaining after 40 mins; format: ADME, cell-free
Kidney [17] = assay: Biodistribution in Sprague-Dawley rat kidney at 3.7 x 10^3 to 5.55 x 10^3 GBq, iv after 60 mins; format: ADME, organism-based; details: in vivo, 1 h
[18] = Metabolic stability in Sprague-Dawley rat plasma assessed as radioactive compound remaining after 2 mins; format: ADME, cell-free; details: read-out: Stability
Brain [19] = assay: Biodistribution in Sprague-Dawley rat brain at 3.7 x 10^3 to 5.55 x 10^3 GBq, iv after 60 mins; format: ADME, organism-based; details: in vivo, 1 h
Muscle tissue [20] = assay: Biodistribution in Sprague-Dawley rat muscle at 3.7 x 10^3 to 5.55 x 10^3 GBq, iv after 60 mins; format: ADME, organism-based; details: in vivo, 1 h
Striatum [21] = assay: Biodistribution in Sprague-Dawley rat striatum at 3.7 x 10^3 to 5.55 x 10^3 GBq, iv after 60 mins; format: ADME, organism-based; details: in vivo, 1 h
Liver [22] = assay: Biodistribution in Sprague-Dawley rat liver at 3.7 x 10^3 to 5.55 x 10'3 GBq, iv after 30 mins; format: ADME, organism-based; details: in vivo, 0.5 h
Muscle tissue [23] = assay: Biodistribution in Sprague-Dawley rat muscle at 3.7 x 10^3 to 5.55 x 10'3 GBq, iv after 30 mins; format: ADME, organism-based; details: in vivo, 0.5 h
Plasma [24] = assay: Metabolic stability in Sprague-Dawley rat plasma assessed as compound remaining retention time administered intravenously measured after 60 mins postinjection; format: ADME, organism-based; details: in vivo, iv, 1 h
Lung [25] = assay: Biodistribution in Sprague-Dawley rat lung at 3.7 x 10^3 to 5.55 x 10^3 GBq, iv after 5 mins; format: ADME, organism-based; details: in vivo
Lung [26] = assay: Biodistribution in Sprague-Dawley rat lung at 3.7 x 10^3 to 5.55 x 10^3 GBq, iv after 60 mins; format: ADME, organism-based; details: in vivo, 1 h
Plasma [27] = assay: Metabolic stability in Sprague-Dawley rat plasma assessed as 4-(1-Methyl-4-pyridin-4-yl-1H-pyrazol-3-yl)-phenol remaining after 2 mins; format: ADME, cell-free
Lung [28] = assay: Biodistribution in Sprague-Dawley rat lung at 3.7 x 10^3 to 5.55 x 10'3 GBq, iv after 30 mins; format: ADME, organism-based; details: in vivo, 0.5 h
[29] = Metabolic stability in Sprague-Dawley rat brain assessed as radioactive compound remaining after 2 mins; format: ADME, tissue-based; details: read-out: Stability
Heart [30] = assay: Biodistribution in Sprague-Dawley rat heart at 3.7 x 10^3 to 5.55 x 10'3 GBq, iv after 30 mins; format: ADME, organism-based; details: in vivo, 0.5 h
[31] = Metabolic stability in Sprague-Dawley rat brain assessed as radioactive compound remaining after 20 mins; format: ADME, tissue-based; details: read-out: Stability
Heart [32] = assay: Biodistribution in Sprague-Dawley rat heart at 3.7 x 10^3 to 5.55 x 10^3 GBq, iv after 5 mins; format: ADME, organism-based; details: in vivo
Blood [33] = assay: Biodistribution in Sprague-Dawley rat blood at 3.7 x 10^3 to 5.55 x 10'3 GBq, iv after 30 mins; format: ADME, organism-based; details: in vivo, 0.5 h
Brain [34] = assay: Biodistribution in Sprague-Dawley rat brain at 3.7 x 10^3 to 5.55 x 10'3 GBq, iv after 30 mins; format: ADME, organism-based; details: in vivo, 0.5 h
Blood [35] = assay: Biodistribution in Sprague-Dawley rat blood at 3.7 x 10^3 to 5.55 x 10^3 GBq, iv after 5 mins; format: ADME, organism-based; details: in vivo
Plasma [36] = assay: Metabolic stability in Sprague-Dawley rat plasma assessed as 4-(1-Methyl-4-pyridin-4-yl-1H-pyrazol-3-yl)-phenol remaining after 20 mins; format: ADME, cell-free
Testes [37] = assay: Biodistribution in Sprague-Dawley rat testes at 3.7 x 10^3 to 5.55 x 10'3 GBq, iv after 30 mins; format: ADME, organism-based, Testis; details: in vivo, 0.5 h
Brain [38] = assay: Metabolic stability in Sprague-Dawley rat brain assessed as 4-(1-Methyl-4-pyridin-4-yl-1H-pyrazol-3-yl)-phenol remaining after 40 mins; format: ADME, tissue-based
Plasma [39] = assay: Metabolic stability in Sprague-Dawley rat plasma assessed as 4-(1-Methyl-4-pyridin-4-yl-1H-pyrazol-3-yl)-phenol remaining after 60 mins; format: ADME, cell-free
Cortex [40] = assay: Biodistribution in Sprague-Dawley rat cortex at 3.7 x 10^3 to 5.55 x 10^3 GBq, iv after 5 mins; format: ADME, organism-based; details: in vivo
Kidney [41] = assay: Biodistribution in Sprague-Dawley rat kidney at 3.7 x 10^3 to 5.55 x 10'3 GBq, iv after 30 mins; format: ADME, organism-based; details: in vivo, 0.5 h
Liver [42] = assay: Biodistribution in Sprague-Dawley rat liver at 3.7 x 10^3 to 5.55 x 10^3 GBq, iv after 60 mins; format: ADME, organism-based; details: in vivo, 1 h
Blood [43] = assay: Biodistribution in Sprague-Dawley rat blood at 3.7 x 10^3 to 5.55 x 10^3 GBq, iv after 60 mins; format: ADME, organism-based; details: in vivo, 1 h
Brain [44] = assay: Metabolic stability in Sprague-Dawley rat brain assessed as compound remaining retention time administered intravenously measured after 60 mins postinjection; format: ADME, organism-based; details: in vivo, iv, 1 h
Testes [45] = assay: Biodistribution in Sprague-Dawley rat testes at 3.7 x 10^3 to 5.55 x 10^3 GBq, iv after 60 mins; format: ADME, organism-based, Testis; details: in vivo, 1 h
Cortex [46] = assay: Biodistribution in Sprague-Dawley rat cortex at 3.7 x 10^3 to 5.55 x 10^3 GBq, iv after 60 mins; format: ADME, organism-based; details: in vivo, 1 h
Muscle tissue [47] = assay: Biodistribution in Sprague-Dawley rat muscle at 3.7 x 10^3 to 5.55 x 10^3 GBq, iv after 5 mins; format: ADME, organism-based; details: in vivo
Plasma [48] = assay: Metabolic stability in Sprague-Dawley rat plasma assessed as 4-(1-Methyl-4-pyridin-4-yl-1H-pyrazol-3-yl)-phenol remaining retention time administered intravenously measured after 60 mins postinjection; format: ADME, organism-based; details: in vivo, iv
Cortex [49] = assay: Biodistribution in Sprague-Dawley rat cortex at 3.7 x 10^3 to 5.55 x 10'3 GBq, iv after 30 mins; format: ADME, organism-based; details: in vivo, 0.5 h
[50] = Metabolic stability in Sprague-Dawley rat brain assessed as radioactive compound remaining after 40 mins; format: ADME, tissue-based; details: read-out: Stability
Brain [51] = assay: Metabolic stability in Sprague-Dawley rat brain assessed as 4-(1-Methyl-4-pyridin-4-yl-1H-pyrazol-3-yl)-phenol remaining after 60 mins; format: ADME, tissue-based
Testes [52] = assay: Biodistribution in Sprague-Dawley rat testes at 3.7 x 10^3 to 5.55 x 10^3 GBq, iv after 5 mins; format: ADME, organism-based, Testis; details: in vivo
[53] = Metabolic stability in Sprague-Dawley rat plasma assessed as radioactive compound remaining after 60 mins; format: ADME, cell-free; details: read-out: Stability
[54] = Biodistribution in Sprague-Dawley rat hippocampus at 3.7 x 10^3 to 5.55 x 10'3 GBq, iv after 30 mins; format: ADME, organism-based; details: in vivo, 0.5 h
Liver [55] = assay: Biodistribution in Sprague-Dawley rat liver at 3.7 x 10^3 to 5.55 x 10^3 GBq, iv after 5 mins; format: ADME, organism-based; details: in vivo
Brain [56] = assay: Metabolic stability in Sprague-Dawley rat brain assessed as 4-(1-Methyl-4-pyridin-4-yl-1H-pyrazol-3-yl)-phenol remaining retention time administered intravenously measured after 60 mins postinjection; format: ADME, organism-based; details: in vivo, iv
Cerebellum [57] = assay: Biodistribution in Sprague-Dawley rat cerebellum at 3.7 x 10'3 to 5.55 x 10^3 GBq, iv after 5 mins; format: ADME, organism-based; details: in vivo
[58] = Biodistribution in Sprague-Dawley rat hippocampus at 3.7 x 10^3 to 5.55 x 10^3 GBq, iv after 60 mins; format: ADME, organism-based; details: in vivo, 1 h
Striatum [59] = assay: Biodistribution in Sprague-Dawley rat striatum at 3.7 x 10^3 to 5.55 x 10'3 GBq, iv after 30 mins; format: ADME, organism-based; details: in vivo, 0.5 h

SMILES: [11CH3]n1cc(-c2ccncc2)c(-c2ccc(OCc3ccc4ccccc4n3)cc2)n1
- remaining at 40 min [1]: 52.6%
- Drug uptake [2]: 0.075 % ID/g
- Activity (Brain [3]): 3.45%
- remaining at 1 h [4]: 78.6%
- Drug uptake (Striatum [5]): 0.3 % ID/g
- Activity (Brain [6]): 1.03%
- Drug uptake [7]: 0.1 % ID/g
- Drug uptake (Cerebellum [8]): 0.035 % ID/g
- Drug uptake (Cerebellum [9]): 0.036 % ID/g
- remaining at 20 min [10]: 74.2%
- Drug uptake [11]: 0.169 % ID/g
- Drug uptake (Kidney [12]): 1.229 % ID/g
- Drug uptake (Brain [13]): 0.162 % ID/g
- Drug uptake (Heart [14]): 0.068 % ID/g
- Drug uptake [15]: 0.124 % ID/g
- Activity (Plasma [16]): 35.19%
- Drug uptake (Kidney [17]): 0.314 % ID/g
- remaining at 2 min [18]: 98.3%
- Drug uptake (Brain [19]): 0.056 % ID/g
- Drug uptake (Muscle tissue [20]): 0.039 % ID/g
- Drug uptake (Striatum [21]): 0.164 % ID/g
- Drug uptake (Liver [22]): 3.395 % ID/g
- Drug uptake (Muscle tissue [23]): 0.059 % ID/g
- Time (Plasma [24]): 3 min
- Drug uptake (Lung [25]): 0.317 % ID/g
- Drug uptake (Lung [26]): 0.09 % ID/g
- Activity (Plasma [27]): 1.23%
- Drug uptake (Lung [28]): 0.155 % ID/g
- remaining at 2 min [29]: 98.7%
- Drug uptake (Heart [30]): 0.102 % ID/g
- remaining at 20 min [31]: 94.8%
- Drug uptake (Heart [32]): 0.264 % ID/g
- Drug uptake (Blood [33]): 0.065 % ID/g
- Drug uptake (Brain [34]): 0.066 % ID/g
- Drug uptake (Blood [35]): 0.123 % ID/g
- Activity (Plasma [36]): 19.13%
- Drug uptake (Testes [37]): 0.098 % ID/g
- Activity (Brain [38]): 11.47%
- Activity (Plasma [39]): 40.72%
- Drug uptake (Cortex [40]): 0.133 % ID/g
- Drug uptake (Kidney [41]): 0.366 % ID/g
- Drug uptake (Liver [42]): 3.364 % ID/g
- Drug uptake (Blood [43]): 0.047 % ID/g
- Time (Brain [44]): 10.5 min
- Drug uptake (Testes [45]): 0.068 % ID/g
- Drug uptake (Cortex [46]): 0.044 % ID/g
- Drug uptake (Muscle tissue [47]): 0.093 % ID/g
- Time (Plasma [48]): 3 min
- Drug uptake (Cortex [49]): 0.044 % ID/g
- remaining at 40 min [50]: 84.7%
- Activity (Brain [51]): 15.87%
- Drug uptake (Testes [52]): 0.16 % ID/g
- remaining at 1 h [53]: 49.3%
- Drug uptake [54]: 0.05 % ID/g
- Drug uptake (Liver [55]): 2.766 % ID/g
- Time (Brain [56]): 10.5 min
- Drug uptake (Cerebellum [57]): 0.133 % ID/g
- Drug uptake [58]: 0.051 % ID/g
- Drug uptake (Striatum [59]): 0.236 % ID/g
